Values after ≈ are worked out from the molar mass of the structure shown. Like-named read-outs stand apart in the source and are kept apart here.
Legend:
Assay type in all cases: cell-based
[1] = tested on: Escherichia coli K-12; test: Minimum inhibitory concentration, serial dilution on nutrient agar
[2] = tested on: Bacillus subtilis NRRL B-558; test: as above; details: NRRLB558, 37° C., 18 hours incubation
[3] = tested on: Bacillus anthracis; test: microbe, parasite or virus in culture; details: 18 h
[4] = tested on: Pseudomonas aeruginosa No. 12; test: Minimum inhibitory concentration, serial dilution on nutrient agar
[5] = tested on: Escherichia coli W677; test: as above
[6] = tested on: Escherichia coli K-12 R5; test: as above; details: K12R5, 18 h
[7] = tested on: Providencia Pv 16; test: as above; details: PV16, 37° C., 18 hours incubation
[8] = tested on: Pseudomonas aeruginosa TI-13; test: as above
[9] = tested on: Escherichia coli JR255; test: as above
[10] = tested on: Escherichia coli K-12 ML 1410; test: as above
[11] = tested on: Pseudomonas aeruginosa GN315; test: as above
[12] = tested on: Serratia marcescens; test: as above; details: 37° C., 18 hours incubation
[13] = tested on: Escherichia coli K-12 ML 1410 R81; test: as above; details: 18 h
[14] = tested on: Shigella dysenteriae JS 11910; test: as above; details: JS11910, 18 h
[15] = tested on: Pseudomonas aeruginosa 99; test: as above
[16] = tested on: Providencia 2991; test: as above; details: 37° C., 18 hours incubation
[17] = tested on: Escherichia coli K-12 J5R 11-2; test: as above; details: K12J5R112, 37° C., 18 hours incubation
Description: (§1) The minimum inhibitory concentration (mcg/ml) of 1-N-[(S)-4-amino-2-hydroxybutyryl]-5,3',4'-trideoxykanamycin B (abbreviated as AHB-trideoxyKMB), 1-N-[(RS)-3-amino-2-hydroxypropionyl]-5,3',4'-trideoxykanamycin B (abbreviated as AHP-trideoxy-KMB) and 1-N-[(S)-4-amino-2-hydroxybutyryl]-5,3',4',6"-tetradeoxykanamycin B (abbreviated as AHB-tetradeoxyKMB) of the formula (II) according to this invention as well as of the new compound 5,3',4',6"-tetradeoxykanamycin B (abbreviated as tetradeoxyKMB) of the formula (III) according to this invention against various microorganisms were determined according to serial dilution method on a nutrient agar medium at 37° C., the estimation being made after 18 hours incubation. For comparison purpose, the minimum inhibitory concentrations of habekacin were also determined in the same manner as stated above.
(§2) The minimum inhibitory concentrations (mcg/ml) of 1-N-[(S)-4-amino-2-hydroxybutyryl]-5,3',4'-trideoxy-6'-N-methylkanamycin B (abbreviated as AHB-trideoxyMKMB), 1-N-[(RS)-3-amino-2-hydroxypropionyl]-5,3',4'-trideoxy-6'-N-methylkanamycin B (abbreviated as AHP-trideoxyMKMB) and 1-N-[(S)-5-amino-2-hydroxyvaleryl]-5,3',4'-trideoxy-6'-N-methylkanamycin B (abbreviated as AHV-trideoxyMKMB) of the formula (IV) according to this invention as well as of the new compound 5,3',4'-trideoxy-6'-N-methylkanamycin B (abbreviated as trideoxyMKMB) of the formula (V) according to this invention against various microorganisms were determined according to serial dilution method on a nutrient agar medium at 37° C., the estimation being made after 18 hours incubation. For comparison purpose, the minimum inhibitory concentrations of 1-N-[(S)-4-amino-2-hydroxybutyryl]-3',4'-dideoxykanamycin B (ie. habekacin) were also determined in the same manner as stated above.

[18] = tested on: Shigella flexneri 4b JS11811; test: as above; details: 4BJS11811, 37° C., 18 hours incubation
Description: as §1, §2

[19] = tested on: Escherichia coli K-12 C 600R/35; test: as above; details: K12C600R/35, 37° C., 18 hours incubation
Description: as §1, §2

[20] = tested on: Shigella sonnei JS11746; test: as above; details: 37° C., 18 hours incubation
Description: as §1, §2

[21] = tested on: Escherichia coli K-12 ML 1630; test: as above; details: K12ML1630, 37° C., 18 hours incubation
Description: as §1, §2

[22] = tested on: Klebsiella pneumoniae 22 #3038; test: as above
[23] = tested on: Sarcina lutea PCI 1001; test: as above; details: Micrococcus luteus
[24] = tested on: Escherichia coli K-12 R 388; test: as above; details: K12R388, 18 h
[25] = tested on: Salmonella enteritidis 1891; test: as above; details: Salmonella enterica
[26] = tested on: bacteria; test: Antibacterial activity (stated in words)
[27] = K12, nutrient agar, 37° C., 18 hours incubation, read-out: MIC
[28] = NO.12, nutrient agar, 37° C., 18 hours incubation, read-out: MIC
[29] = W677, nutrient agar, 37° C., 18 hours incubation, read-out: MIC
[30] = JR255, nutrient agar, 37° C., 18 hours incubation, read-out: MIC
[31] = GN315, nutrient agar, 37° C., 18 hours incubation, read-out: MIC
[32] = Pseudomonas aeruginosa, 99, nutrient agar, 37° C., 18 hours incubation, read-out: MIC
[33] = nutrient agar, 37° C., 18 hours incubation, read-out: MIC
[34] = PCI1001, nutrient agar, 37° C., 18 hours incubation, read-out: MIC

Structure (SMILES) | MIC [2] | MIC [3] | MIC [6] | MIC [7] | MIC ([8]; TI13, 18 h) | MIC ([10]; K12ML1410, 18 h) | MIC [12] | MIC [13] | MIC [14] | MIC [16] | MIC [17] | MIC [18] | MIC [19] | MIC [20] | MIC [21] | MIC [24] | MIC [1, 27] | MIC [4, 28] | MIC [5, 29] | MIC [9, 30] | also measured
CNC[C@@H]1CC[C@@H](N)[C@@H](O[C@H]2C[C@@H](O[C@H]3O[C@H](CO)[C@@H](O)[C@H](N)[C@H]3O)[C@H](NC(=O)[C@@H](O)CCCN)C[C@@H]2N)O1 [AHV-trideoxyMKMB, 1-N-[(S)-5-amino-2-hydroxyvaleryl]-5,3',4'-trideoxy-6'-N-methylkanamycin B] | < 0.2 µg/mL | < 0.2 µg/mL | 6.25 µg/mL (≈ 11.1 µM) | 25 µg/mL (≈ 44.3 µM) | 1.56 µg/mL (≈ 2.76 µM) | 3.13 µg/mL (≈ 5.54 µM) | 12.5 µg/mL (≈ 22.1 µM) | 3.13 µg/mL (≈ 5.54 µM) | 6.25 µg/mL (≈ 11.1 µM) | 25 µg/mL (≈ 44.3 µM) | 3.13 µg/mL (≈ 5.54 µM) | 1.56 µg/mL (≈ 2.76 µM) | 1.56 µg/mL (≈ 2.76 µM) | 6.25 µg/mL (≈ 11.1 µM) | 3.13 µg/mL (≈ 5.54 µM) | 1.56 µg/mL (≈ 2.76 µM) |  |  |  |  | MIC ([1]; K12, 18 h): 1.56 µg/mL (≈ 2.76 µM); MIC ([4]; NO.12, 18 h): 3.13 µg/mL (≈ 5.54 µM); MIC ([5]; W677, 18 h): 1.56 µg/mL (≈ 2.76 µM); MIC ([9]; JR255, 18 h): 1.56 µg/mL (≈ 2.76 µM); MIC ([11]; GN315, 18 h): 3.13 µg/mL (≈ 5.54 µM); MIC ([15]; Pseudomonas aeruginosa, 99, 18 h): 6.25 µg/mL (≈ 11.1 µM); MIC ([22]; 18 h): 3.13 µg/mL (≈ 5.54 µM); MIC ([23]; PCI1001, 18 h): 1.56 µg/mL (≈ 2.76 µM); MIC ([25]; 18 h): 3.13 µg/mL (≈ 5.54 µM)
C[C@H]1O[C@H](O[C@@H]2C[C@H](O[C@H]3O[C@H](CN)CC[C@H]3N)[C@@H](N)C[C@H]2N)[C@H](O)[C@@H](N)[C@@H]1O [TetradeoxyKMB, 5,3',4',6"-tetradeoxykanamycin B] | < 0.2 µg/mL | 0.39 µg/mL (≈ 0.93 µM) | > 100 µg/mL | > 100 µg/mL | 12.5 µg/mL (≈ 29.8 µM) | 12.5 µg/mL (≈ 29.8 µM) | 100 µg/mL (≈ 238 µM) |  | 12.5 µg/mL (≈ 29.8 µM) | > 100 µg/mL | 6.25 µg/mL (≈ 14.9 µM) | 25 µg/mL (≈ 59.6 µM) | 6.25 µg/mL (≈ 14.9 µM) | 12.5 µg/mL (≈ 29.8 µM) | 12.5 µg/mL (≈ 29.8 µM) | 3.13 µg/mL (≈ 7.46 µM) | 25 µg/mL (≈ 59.6 µM) | 25 µg/mL (≈ 59.6 µM) | 6.25 µg/mL (≈ 14.9 µM) | 25 µg/mL (≈ 59.6 µM) | MIC [11, 31]: > 100 µg/mL; antibacterial activity [26]: significantly active against some kinds of bacteria; MIC [15, 32]: 25 µg/mL (≈ 59.6 µM); MIC [22, 33]: 100 µg/mL (≈ 238 µM); MIC [23, 34]: 50 µg/mL (≈ 119 µM); MIC [25, 33]: 25 µg/mL (≈ 59.6 µM)
CNC[C@@H]1CC[C@@H](N)[C@@H](O[C@H]2C[C@@H](O[C@H]3O[C@H](CO)[C@@H](O)[C@H](N)[C@H]3O)[C@H](N)C[C@@H]2N)O1 [TrideoxyMKMB, 5,3',4'-trideoxy-6'-N-methylkanamycin B] | 0.78 µg/mL (≈ 1.74 µM) | 0.78 µg/mL (≈ 1.74 µM) | 50 µg/mL (≈ 111 µM) | > 100 µg/mL |  |  | 100 µg/mL (≈ 222 µM) | 25 µg/mL (≈ 55.6 µM) | 50 µg/mL (≈ 111 µM) | > 100 µg/mL | 25 µg/mL (≈ 55.6 µM) | 25 µg/mL (≈ 55.6 µM) | 12.5 µg/mL (≈ 27.8 µM) | 25 µg/mL (≈ 55.6 µM) | 25 µg/mL (≈ 55.6 µM) | 12.5 µg/mL (≈ 27.8 µM) | 12.5 µg/mL (≈ 27.8 µM) | 25 µg/mL (≈ 55.6 µM) | 12.5 µg/mL (≈ 27.8 µM) | 100 µg/mL (≈ 222 µM) | MIC ([8]; TI13, nutrient agar, 37° C., 18 hours incubation, read-out: MIC): 12.5 µg/mL (≈ 27.8 µM); MIC ([10]; K12ML1410, nutrient agar, 37° C., 18 hours incubation, read-out: MIC): 25 µg/mL (≈ 55.6 µM); MIC [11, 31]: 25 µg/mL (≈ 55.6 µM); antibacterial activity [26]: antibacterial activity higher than that of the 5,3',4'-trideoxykanamycin B especially against some resistant strains; MIC [15, 32]: 50 µg/mL (≈ 111 µM); MIC [22, 33]: 100 µg/mL (≈ 222 µM); MIC [23, 34]: 25 µg/mL (≈ 55.6 µM); MIC [25, 33]: 25 µg/mL (≈ 55.6 µM)

From patent US4410516A, “1-N(αHydroxy-ω-aminoalkanoyl) derivatives of 5,3',4'-trideoxy- or 5,3', 4'-trideoxy-6'-N- methyl- or 5, 3', 4',6"-tetradeoxykannamyci B and production thereof” (Zaidan Hojin Biseibutsu Kagaku Kenkyu Kai, priority 1981, dated 1983)
